Results from US20240335442A1 (Eurofarma Laboratórios S.A., priority 2021, published 2024).

Assays:
[1] = molecular target: human sodium channel Nav 1.8 (Homo sapiens (Human), UniProt Q9Y5Y9); assay: Automated whole-cell voltage-clamp (ScreenPatch 384P), Nav 1.8 sodium current, Protocol 1; format: cell-based; settings: Protocol 1 (holding voltage -90 mV, 0.1 Hz); CHO cells expressing human Nav 1.8; room temperature; read-out: Nav1.8 IC50
Description: (§1) Biological assays were performed on Chinese hamster ovary (CHO) cells expressing the human sodium channels Nav 1.8 and Nav 1.7 stably.
(§2) The experimental voltage-clamp protocol using the whole cell configuration was established on the automated ScreenPatch® 384P platform (SP384PE, Nanion Technologies, Livingston, NJ) and recording of the results was performed with a Nanion 384-well Patch Clamp chip (NPC) (Nanion Technologies, Livingston, NJ).
(§3) Compounds of Formula (I), were diluted in eight concentrations in the extracellular solution composed of physiological saline, buffered with HEPES (mM): NaCl, 137; KCl, 4; CaCl2, 3.8; MgCl2, 1; HEPES, 10; Glucose, 10; pH 7.4. The […], 50; CsF, 90; MgCl2, 5; EGTA, 5; HEPES, 10; pH 7.2. The duration of exposure of each compound with the cells expressing Nav 1.7 or Nav 1.8 was at least five minutes and the assays were performed at room temperature.
(§4) The measurements of the sodium currents of Nav 1.8 and Nav 1.7 were obtained using the voltage protocols described below: • Protocol 1: A holding voltage of-90 mV was established followed by a voltage phase of 200 ms to-120 mV, followed by a voltage step of 10 mV for 1 second for Nav 1.8 or 0 mV for Nav 1.7, followed by a step of-100 mV for 20 ms, followed by a step of 20 ms for 10 mV for Nav 1.8 or 0 mV for Nav 1.7 (TP1A) before returning to the holding voltage of-90 mV. • Protocol 2: A holding voltage of-100 mV was established followed by an inactivation voltage step at −40 mV for 8 seconds, followed by a −100 mV step for 20 ms, followed by a 20 ms step for 10 mV for Nav 1.8 or 0 mV for Nav 1.7 (TP1A) before returning to the holding voltage of-100 mV.
(§5) Protocols were repeated at a frequency of 0.1 Hz (Protocol 1) or 0.05 Hz (Protocol 2) and current amplitude was quantified over the TP1A phase log. The variation in the peak amplitude of the current was evaluated according to the Formula described below, after exposure of the cells expressing the channels, at each concentration of the different compounds:
(§6) where ITP1A,basal, and ITP1A,molecule represent the entry peaks of sodium currents into TP1A prior to exposure to the compound and in the presence of the compound, respectively.
(§7) The decrease in peak current amplitude, after exposure of the cells to the compounds, was used to calculate the percent relative blocking of the channels relative to the positive control according to the Formula below: […]
(§8) where % V and % CP represent the averages of the values of current inhibition with a vehicle (DMSO) and positive controls, respectively. The sodium currents of the positive control were considered as 100%.
(§9) where [Test] represents the concentration of the evaluated molecule, IC50 is the concentration of the compound that generates half of the maximum inhibition, N is the Hill's coefficient and % Block′ is the percentage of the sodium channel current (Nav 1.8 and Nav 1.7) inhibited at each concentration of the evaluated molecule. Data were obtained by non linear least squares regression with XL fit for Excel (Microsoft, Redmond, WA).
(§10) Compounds were tested in at least one assay to obtain the IC50 value.

[2] = molecular target: human sodium channel Nav 1.7 (Homo sapiens (Human), UniProt Q15858); assay: Automated whole-cell voltage-clamp (ScreenPatch 384P), Nav 1.7 sodium current, Protocol 1; format: cell-based; settings: Protocol 1 (holding voltage -90 mV, 0.1 Hz); CHO cells expressing human Nav 1.7; room temperature; read-out: Nav1.7 IC50
Description: as §1, §2, §3, §4, §5, §6, §7, §8, §9, §10

human sodium channel Nav 1.8, sequence (Q9Y5Y9 whole entry): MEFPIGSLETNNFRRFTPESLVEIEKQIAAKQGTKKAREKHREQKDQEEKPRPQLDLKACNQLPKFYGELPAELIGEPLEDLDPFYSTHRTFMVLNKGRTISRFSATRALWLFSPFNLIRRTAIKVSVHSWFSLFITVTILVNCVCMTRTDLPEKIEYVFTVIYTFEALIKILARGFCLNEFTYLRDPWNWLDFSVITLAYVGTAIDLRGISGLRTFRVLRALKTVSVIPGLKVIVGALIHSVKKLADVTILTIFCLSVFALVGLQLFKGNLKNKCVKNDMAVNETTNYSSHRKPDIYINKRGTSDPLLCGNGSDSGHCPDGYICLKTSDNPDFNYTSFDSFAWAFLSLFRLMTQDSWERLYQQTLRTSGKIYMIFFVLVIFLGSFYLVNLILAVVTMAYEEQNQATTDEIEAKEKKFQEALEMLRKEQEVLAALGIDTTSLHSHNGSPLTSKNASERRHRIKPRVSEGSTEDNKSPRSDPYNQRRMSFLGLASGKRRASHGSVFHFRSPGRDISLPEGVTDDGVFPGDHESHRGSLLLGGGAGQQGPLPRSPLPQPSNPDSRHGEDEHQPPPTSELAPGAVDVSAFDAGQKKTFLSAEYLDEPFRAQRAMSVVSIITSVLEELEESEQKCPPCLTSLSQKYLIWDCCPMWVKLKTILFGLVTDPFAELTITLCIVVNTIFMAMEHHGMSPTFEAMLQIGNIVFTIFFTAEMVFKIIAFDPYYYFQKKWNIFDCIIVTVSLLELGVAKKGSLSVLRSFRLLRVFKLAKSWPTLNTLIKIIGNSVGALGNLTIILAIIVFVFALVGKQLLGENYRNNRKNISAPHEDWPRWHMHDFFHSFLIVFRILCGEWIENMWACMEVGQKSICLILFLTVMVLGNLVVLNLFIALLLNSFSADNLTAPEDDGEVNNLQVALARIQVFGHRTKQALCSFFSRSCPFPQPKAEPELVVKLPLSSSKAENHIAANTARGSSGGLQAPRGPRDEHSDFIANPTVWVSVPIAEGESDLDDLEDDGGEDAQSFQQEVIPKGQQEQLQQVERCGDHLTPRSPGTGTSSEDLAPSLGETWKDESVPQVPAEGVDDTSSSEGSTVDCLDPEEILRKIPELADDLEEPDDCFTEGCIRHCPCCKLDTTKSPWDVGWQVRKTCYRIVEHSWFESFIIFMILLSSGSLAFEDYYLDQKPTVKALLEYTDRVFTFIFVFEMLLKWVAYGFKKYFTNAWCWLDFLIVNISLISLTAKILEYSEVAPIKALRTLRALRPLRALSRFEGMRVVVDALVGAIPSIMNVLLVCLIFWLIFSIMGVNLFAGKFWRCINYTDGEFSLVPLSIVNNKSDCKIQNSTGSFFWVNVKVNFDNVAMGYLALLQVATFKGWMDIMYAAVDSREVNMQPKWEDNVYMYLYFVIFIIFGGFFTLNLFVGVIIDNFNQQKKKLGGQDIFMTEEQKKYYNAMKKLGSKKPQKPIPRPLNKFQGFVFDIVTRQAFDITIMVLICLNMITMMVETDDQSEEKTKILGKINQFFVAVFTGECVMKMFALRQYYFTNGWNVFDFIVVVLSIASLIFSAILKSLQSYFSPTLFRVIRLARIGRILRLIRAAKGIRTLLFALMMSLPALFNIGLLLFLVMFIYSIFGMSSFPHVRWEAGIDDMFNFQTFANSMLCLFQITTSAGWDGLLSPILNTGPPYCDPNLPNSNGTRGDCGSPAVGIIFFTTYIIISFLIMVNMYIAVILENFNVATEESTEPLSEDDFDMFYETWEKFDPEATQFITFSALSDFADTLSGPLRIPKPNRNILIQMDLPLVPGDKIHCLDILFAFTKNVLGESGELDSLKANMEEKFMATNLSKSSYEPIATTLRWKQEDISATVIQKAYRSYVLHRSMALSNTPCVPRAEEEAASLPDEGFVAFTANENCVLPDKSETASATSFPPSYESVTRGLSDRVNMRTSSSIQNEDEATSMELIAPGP
human sodium channel Nav 1.7, sequence (Q15858 whole entry): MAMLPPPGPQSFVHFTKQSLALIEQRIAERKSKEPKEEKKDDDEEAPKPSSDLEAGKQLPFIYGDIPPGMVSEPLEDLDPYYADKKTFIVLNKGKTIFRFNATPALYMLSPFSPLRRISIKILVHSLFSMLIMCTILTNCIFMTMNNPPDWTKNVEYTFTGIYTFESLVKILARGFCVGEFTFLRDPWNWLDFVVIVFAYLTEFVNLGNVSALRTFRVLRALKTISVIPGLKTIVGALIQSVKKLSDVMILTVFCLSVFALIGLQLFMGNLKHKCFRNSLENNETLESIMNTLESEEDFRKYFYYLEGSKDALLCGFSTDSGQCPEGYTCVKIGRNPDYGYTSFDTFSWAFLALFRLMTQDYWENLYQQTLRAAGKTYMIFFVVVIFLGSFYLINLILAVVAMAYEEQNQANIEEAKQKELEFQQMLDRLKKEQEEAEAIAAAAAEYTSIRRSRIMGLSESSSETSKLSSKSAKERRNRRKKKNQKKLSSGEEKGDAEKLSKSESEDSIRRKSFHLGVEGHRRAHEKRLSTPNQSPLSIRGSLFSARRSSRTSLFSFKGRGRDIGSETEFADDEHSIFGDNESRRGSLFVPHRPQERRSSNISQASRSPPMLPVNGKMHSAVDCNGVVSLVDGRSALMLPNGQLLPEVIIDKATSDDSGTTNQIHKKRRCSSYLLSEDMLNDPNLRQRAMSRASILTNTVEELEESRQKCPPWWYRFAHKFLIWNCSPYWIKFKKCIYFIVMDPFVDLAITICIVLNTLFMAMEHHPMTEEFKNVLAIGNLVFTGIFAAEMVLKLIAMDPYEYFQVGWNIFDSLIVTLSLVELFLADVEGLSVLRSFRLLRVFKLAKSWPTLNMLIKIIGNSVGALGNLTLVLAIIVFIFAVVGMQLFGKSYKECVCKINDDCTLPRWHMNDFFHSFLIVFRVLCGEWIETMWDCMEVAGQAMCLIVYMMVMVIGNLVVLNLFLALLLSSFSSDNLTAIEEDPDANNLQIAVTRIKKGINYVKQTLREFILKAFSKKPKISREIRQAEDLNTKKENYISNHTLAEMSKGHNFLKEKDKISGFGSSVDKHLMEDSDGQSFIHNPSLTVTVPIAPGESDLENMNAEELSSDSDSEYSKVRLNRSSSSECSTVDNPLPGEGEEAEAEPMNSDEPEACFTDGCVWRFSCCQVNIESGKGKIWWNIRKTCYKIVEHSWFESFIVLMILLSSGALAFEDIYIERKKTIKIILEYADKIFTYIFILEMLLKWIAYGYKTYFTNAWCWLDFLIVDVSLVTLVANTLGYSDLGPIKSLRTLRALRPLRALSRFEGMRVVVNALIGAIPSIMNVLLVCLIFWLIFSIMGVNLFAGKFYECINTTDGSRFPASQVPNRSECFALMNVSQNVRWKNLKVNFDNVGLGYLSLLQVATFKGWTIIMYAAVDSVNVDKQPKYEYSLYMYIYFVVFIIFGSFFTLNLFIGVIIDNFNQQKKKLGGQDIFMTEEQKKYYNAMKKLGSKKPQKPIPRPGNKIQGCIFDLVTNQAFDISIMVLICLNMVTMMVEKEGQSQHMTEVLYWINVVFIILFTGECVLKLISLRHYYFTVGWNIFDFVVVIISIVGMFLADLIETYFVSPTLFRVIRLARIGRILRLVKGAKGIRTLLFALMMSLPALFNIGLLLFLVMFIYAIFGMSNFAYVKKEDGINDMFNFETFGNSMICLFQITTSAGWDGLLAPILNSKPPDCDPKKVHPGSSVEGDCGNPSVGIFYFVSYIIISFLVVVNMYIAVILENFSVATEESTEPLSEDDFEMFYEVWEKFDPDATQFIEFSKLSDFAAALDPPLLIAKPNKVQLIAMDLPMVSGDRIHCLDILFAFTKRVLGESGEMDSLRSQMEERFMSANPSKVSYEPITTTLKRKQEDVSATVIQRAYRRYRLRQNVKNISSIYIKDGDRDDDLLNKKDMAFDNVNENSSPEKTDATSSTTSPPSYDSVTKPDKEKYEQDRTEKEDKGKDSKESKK

Compound	IC50 [1]	IC50 [2]
CCOc1ccc(-c2cncc(C(=O)N/N=C/c3cc(OC)cc(OCCN(C)C)c3)n2)cc1 [Compound 4, (E)-N′-(3-(2-(dimethylamino)ethoxy)-5-methoxybenzylidene)-6-(4-ethoxyphenyl)pyrazine-2-carbohydrazide]	6.02 µM	6.66 µM
CCOc1ccc(-c2cncc(C(=O)N/N=C/c3cc(OC)cc4ncoc34)n2)cc1 [Compound 5, (E)-6-(4-ethoxyphenyl)-N′-((5-methoxybenzo[d]oxazol-7-yl)methylene)pyrazine-2-carbohydrazide]	5.63 µM	> 10 µM
CCOc1ccc(-c2cncc(C(=O)N/N=C/c3cncc(OC)c3)n2)cc1 [Compound 8, (E)-6-(4-ethoxyphenyl)-N′-((5-methoxypyridin-3-yl)methylene)pyrazine-2-carbohydrazide]	> 10 µM	> 10 µM
CCOc1ccc(-c2cncc(C(=O)N/N=C/c3ccncc3)n2)cc1 [Compound 24, (E)-6-(4-ethoxyphenyl)-N′-(pyridin-4-ylmethylene)pyrazine-2-carbohydrazide]	8.09 µM	> 10 µM
CCOc1ccc(-c2cncc(C(=O)N/N=C/c3ccc(OC)c(OC)c3)n2)cc1 [Compound 28, (E)-N′-(3,4-dimethoxybenzylidene)-6-(4-ethoxyphenyl)pyrazine-2-carbohydrazide]	2.37 µM	1.41 µM
CCOc1ccc(-c2cncc(C(=O)N/N=C(\C)c3cc(OC)cc(OC)c3)n2)cc1 [Compound 166, (E)-N′-(1-(3,5-dimethoxyphenyl)ethylidene)-6-(4-ethoxyphenyl)pyrazine-2-carbohydrazide]	9.18 µM	6.36 µM

Now from value to compound:

IC50 [1]	IC50 [2]	Compound
9.77 µM	> 10 µM	CCOc1ccc(-c2cncc(C(=O)N/N=C/c3cc(OC)ccn3)n2)cc1 [Compound 9, (E)-6-(4-ethoxyphenyl)-N′-((4-methoxypyridin-2-yl)methylene)pyrazine-2-carbohydrazide]
3.23 µM	4.52 µM	CCOc1ccc(-c2cncc(C(=O)N/N=C/c3cccc(OC)n3)n2)cc1 [Compound 11, (E)-6-(4-ethoxyphenyl)-N′-((6-methoxypyridin-2-yl)methylene)pyrazine-2-carbohydrazide]
1.9 µM	0.697 µM	CCOc1ccc(-c2cncc(C(=O)N/N=C/c3ccc(OC)cc3)n2)cc1 [Compound 23, (E)-6-(4-ethoxyphenyl)-N′-(4-methoxybenzylidene)pyrazine-2-carbohydrazide]
> 10 µM	> 10 µM	CCOc1ccc(-c2cncc(C(=O)N/N=C/c3ccccn3)n2)cc1 [Compound 25, (E)-6-(4-ethoxyphenyl)-N′-(pyridin-2-ylmethylene)pyrazine-2-carbohydrazide]
